Data from patent US9187480B2, “Peripherally restricted diphenyl purine derivatives” (RESEARCH TRIANGLE INSTITUTE, priority 2012, dated 2015).

target: CB1 (Homo sapiens (Human), UniProt P21554); assay: CB1 activated Gαq16-coupled intracellular calcium mobilization assay in CHO-K1 cells; format: cell-based; settings: apparent affinity (Ke)
Sequence (P21554 whole entry): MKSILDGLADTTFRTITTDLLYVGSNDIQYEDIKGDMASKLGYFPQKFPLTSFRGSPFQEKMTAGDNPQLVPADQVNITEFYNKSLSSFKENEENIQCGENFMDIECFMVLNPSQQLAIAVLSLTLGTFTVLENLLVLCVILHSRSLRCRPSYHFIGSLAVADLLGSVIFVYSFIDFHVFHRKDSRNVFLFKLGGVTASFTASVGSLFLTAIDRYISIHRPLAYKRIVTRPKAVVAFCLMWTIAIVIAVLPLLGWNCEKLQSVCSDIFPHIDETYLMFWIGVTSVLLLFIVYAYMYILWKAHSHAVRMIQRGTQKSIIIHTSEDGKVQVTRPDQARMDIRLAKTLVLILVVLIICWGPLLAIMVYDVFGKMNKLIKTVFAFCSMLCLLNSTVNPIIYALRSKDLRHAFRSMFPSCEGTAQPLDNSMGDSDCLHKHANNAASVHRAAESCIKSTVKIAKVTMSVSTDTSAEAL

SMILES	Ke (nM) at CB1
CCNC(=O)NC1CCN(c2ncnc3c2nc(-c2ccccc2Cl)n3-c2ccc(Cl)cc2)CC1	149 nM
CC(C)NC(=O)N1CCC(Nc2ncnc3c2nc(-c2ccccc2Cl)n3-c2ccc(Cl)cc2)CC1	495 nM
CC(C)(C)OC(=O)NC1CCN(c2ncnc3c2nc(-c2ccccc2Cl)n3-c2ccc(Cl)cc2)CC1	11 nM
CC(C)NC(=O)NC1CCN(c2ncnc3c2nc(-c2ccccc2Cl)n3-c2ccc(Cl)cc2)CC1	133 nM
COC(=O)NC1CCN(c2ncnc3c2nc(-c2ccccc2Cl)n3-c2ccc(Cl)cc2)CC1	17 nM
CCCNC(=O)NC1CCN(c2ncnc3c2nc(-c2ccccc2Cl)n3-c2ccc(Cl)cc2)CC1	132 nM
CN(C)CC(=O)NC1CCN(c2ncnc3c2nc(-c2ccccc2Cl)n3-c2ccc(Cl)cc2)CC1	140 nM
CCNC(=O)N1CCC(Nc2ncnc3c2nc(-c2ccccc2Cl)n3-c2ccc(Cl)cc2)CC1	1148 nM
CC(=O)NC1CCN(c2ncnc3c2nc(-c2ccccc2Cl)n3-c2ccc(Cl)cc2)CC1	631 nM
CCCNC(=O)NC1(c2ccccc2)CCN(c2ncnc3c2nc(-c2ccccc2Cl)n3-c2ccc(Cl)cc2)CC1	100 nM
NS(=O)(=O)NC1CCN(c2ncnc3c2nc(-c2ccccc2Cl)n3-c2ccc(Cl)cc2)CC1	2768 nM
CC(=O)N1CCCC(Nc2ncnc3c2nc(-c2ccccc2Cl)n3-c2ccc(Cl)cc2)C1 (stereo not drawn)	4449 nM
Clc1ccc(-n2c(-c3ccccc3Cl)nc3c(NC4CCNCC4)ncnc32)cc1	Not active
CS(=O)(=O)N1CCC(Nc2ncnc3c2nc(-c2ccccc2Cl)n3-c2ccc(Cl)cc2)CC1	1645 nM
O=C(NC1CCN(c2ncnc3c2nc(-c2ccccc2Cl)n3-c2ccc(Cl)cc2)CC1)C(F)(F)F	3.19 nM
CCCCNC(=O)N1CCC(Nc2ncnc3c2nc(-c2ccccc2Cl)n3-c2ccc(Cl)cc2)CC1	71 nM
O=S(=O)(NC1CCN(c2ncnc3c2nc(-c2ccccc2Cl)n3-c2ccc(Cl)cc2)CC1)c1ccccc1	0.26 nM
O=C(NC1CCCCC1)NC1(c2ccccc2)CCN(c2ncnc3c2nc(-c2ccccc2Cl)n3-c2ccc(Cl)cc2)CC1	199 nM
O=C(CCN1CCCCC1)NC1CCN(c2ncnc3c2nc(-c2ccccc2Cl)n3-c2ccc(Cl)cc2)CC1	789 nM
CCCCNC(=O)NC1(c2ccccc2)CCN(c2ncnc3c2nc(-c2ccccc2Cl)n3-c2ccc(Cl)cc2)CC1	62 nM
CCNC(=O)N1CCCC(Nc2ncnc3c2nc(-c2ccccc2Cl)n3-c2ccc(Cl)cc2)C1 (stereo not drawn)	1153 nM
CCCCNC(=O)NC1CCN(c2ncnc3c2nc(-c2ccccc2Cl)n3-c2ccc(Cl)cc2)CC1	49 nM
CS(=O)(=O)NC1CCN(c2ncnc3c2nc(-c2ccccc2Cl)n3-c2ccc(Cl)cc2)CC1	71 nM
CCOC(=O)CNC(=O)NC1(c2ccccc2)CCN(c2ncnc3c2nc(-c2ccccc2Cl)n3-c2ccc(Cl)cc2)CC1	171 nM
